Experimental data published in ChEMBL document CHEMBL4507274 (2021).

What was measured:
[1] = biological target: Tyrosine-protein kinase ABL1 (Homo sapiens) (UniProt P00519); test: Abl (h) Upstate kinase activity assay; details: Compound concentration 10.0 uM
[2] = biological target: Tyrosine-protein kinase BTK (Homo sapiens) (UniProt Q06187); test: BTK (h) Upstate kinase activity assay; details: Compound concentration 10.0 uM
[3] = biological target: Cyclin-dependent kinase 5/CDK5 activator 1 (Homo sapiens) (UniProt Q00535+Q15078); test: CDK5/ p35 (h) Upstate kinase activity assay; type: protein-complex assay; details: Compound concentration 10.0 uM
[4] = biological target: CDK6/cyclin D3 (Homo sapiens) (UniProt P30281+Q00534); test: CDK6/ cyclin D3 (h) Upstate kinase activity assay; type: protein-complex assay; details: Compound concentration 10.0 uM
[5] = biological target: Proto-oncogene tyrosine-protein kinase Src (Homo sapiens) (UniProt P12931); test: cSRC (h) Upstate kinase activity assay; details: Compound concentration 10.0 uM
[6] = biological target: Insulin receptor (Homo sapiens) (UniProt P06213); test: IR (h) Upstate kinase activity assay; details: Compound concentration 10.0 uM
Sequence of Insulin receptor (Homo sapiens) (P06213 28-758 limits assumed): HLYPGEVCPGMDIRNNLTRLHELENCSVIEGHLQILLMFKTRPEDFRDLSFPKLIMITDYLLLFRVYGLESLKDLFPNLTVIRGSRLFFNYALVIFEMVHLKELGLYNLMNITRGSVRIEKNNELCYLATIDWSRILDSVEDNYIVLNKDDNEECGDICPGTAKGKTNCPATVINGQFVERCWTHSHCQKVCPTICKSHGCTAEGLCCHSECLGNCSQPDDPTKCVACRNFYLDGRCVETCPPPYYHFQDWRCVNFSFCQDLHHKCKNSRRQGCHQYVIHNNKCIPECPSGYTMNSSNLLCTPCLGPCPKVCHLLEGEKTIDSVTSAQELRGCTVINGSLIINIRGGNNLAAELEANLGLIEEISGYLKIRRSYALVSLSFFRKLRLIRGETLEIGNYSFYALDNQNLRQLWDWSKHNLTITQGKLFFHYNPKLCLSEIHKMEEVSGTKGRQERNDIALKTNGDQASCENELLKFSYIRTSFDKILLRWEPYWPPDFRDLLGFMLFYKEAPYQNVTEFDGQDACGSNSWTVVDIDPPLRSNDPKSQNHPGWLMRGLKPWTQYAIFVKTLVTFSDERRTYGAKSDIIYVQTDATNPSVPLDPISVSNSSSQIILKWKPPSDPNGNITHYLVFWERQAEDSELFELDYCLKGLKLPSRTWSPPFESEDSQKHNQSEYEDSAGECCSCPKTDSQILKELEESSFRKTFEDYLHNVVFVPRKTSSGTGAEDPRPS
Sequence of Insulin receptor (Homo sapiens) (P06213 763-1382 limits assumed): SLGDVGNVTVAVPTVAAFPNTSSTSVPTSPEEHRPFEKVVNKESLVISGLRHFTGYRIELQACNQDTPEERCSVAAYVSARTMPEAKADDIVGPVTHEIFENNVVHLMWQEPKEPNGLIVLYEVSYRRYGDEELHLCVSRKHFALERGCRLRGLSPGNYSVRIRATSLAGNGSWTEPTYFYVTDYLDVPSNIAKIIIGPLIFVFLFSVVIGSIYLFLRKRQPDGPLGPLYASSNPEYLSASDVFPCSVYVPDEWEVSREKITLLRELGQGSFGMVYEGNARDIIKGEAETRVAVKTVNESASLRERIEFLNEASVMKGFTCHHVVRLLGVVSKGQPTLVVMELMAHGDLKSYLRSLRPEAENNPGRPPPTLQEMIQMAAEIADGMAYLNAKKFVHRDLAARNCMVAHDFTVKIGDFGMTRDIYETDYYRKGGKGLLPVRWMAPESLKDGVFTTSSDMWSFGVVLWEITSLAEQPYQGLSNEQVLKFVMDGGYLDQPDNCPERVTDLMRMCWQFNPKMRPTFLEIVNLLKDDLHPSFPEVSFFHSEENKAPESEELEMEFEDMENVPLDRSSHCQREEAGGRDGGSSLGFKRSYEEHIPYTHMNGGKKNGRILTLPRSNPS

[7] = biological target: Tyrosine-protein kinase Lyn (Homo sapiens) (UniProt P07948); test: Lyn (h) Upstate kinase activity assay; details: Compound concentration 10.0 uM
Sequence of Tyrosine-protein kinase Lyn (Homo sapiens) (P07948 2-512 limits assumed): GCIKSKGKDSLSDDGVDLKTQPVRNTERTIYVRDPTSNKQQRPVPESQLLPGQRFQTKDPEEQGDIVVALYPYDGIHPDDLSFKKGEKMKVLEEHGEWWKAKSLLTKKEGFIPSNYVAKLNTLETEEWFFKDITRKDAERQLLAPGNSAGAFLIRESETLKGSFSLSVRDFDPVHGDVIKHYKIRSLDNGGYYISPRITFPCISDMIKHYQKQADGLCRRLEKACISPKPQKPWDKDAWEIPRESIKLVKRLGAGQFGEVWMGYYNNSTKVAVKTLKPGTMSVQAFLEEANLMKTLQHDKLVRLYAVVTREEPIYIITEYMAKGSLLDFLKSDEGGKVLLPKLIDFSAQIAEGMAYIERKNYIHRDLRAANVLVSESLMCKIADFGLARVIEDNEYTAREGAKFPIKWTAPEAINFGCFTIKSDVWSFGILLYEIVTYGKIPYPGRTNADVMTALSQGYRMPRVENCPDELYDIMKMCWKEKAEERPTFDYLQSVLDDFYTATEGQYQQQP

[8] = biological target: Dual specificity mitogen-activated protein kinase kinase 1 (Homo sapiens) (UniProt Q02750); test: MEKI (h) Upstate kinase activity assay; details: Compound concentration 10.0 uM
[9] = biological target: Ribosomal protein S6 kinase alpha-5 (Homo sapiens) (UniProt O75582); test: MSK1 (h) Upstate kinase activity assay; details: Compound concentration 10.0 uM
Sequence of Ribosomal protein S6 kinase alpha-5 (Homo sapiens) (O75582 whole entry, looked up): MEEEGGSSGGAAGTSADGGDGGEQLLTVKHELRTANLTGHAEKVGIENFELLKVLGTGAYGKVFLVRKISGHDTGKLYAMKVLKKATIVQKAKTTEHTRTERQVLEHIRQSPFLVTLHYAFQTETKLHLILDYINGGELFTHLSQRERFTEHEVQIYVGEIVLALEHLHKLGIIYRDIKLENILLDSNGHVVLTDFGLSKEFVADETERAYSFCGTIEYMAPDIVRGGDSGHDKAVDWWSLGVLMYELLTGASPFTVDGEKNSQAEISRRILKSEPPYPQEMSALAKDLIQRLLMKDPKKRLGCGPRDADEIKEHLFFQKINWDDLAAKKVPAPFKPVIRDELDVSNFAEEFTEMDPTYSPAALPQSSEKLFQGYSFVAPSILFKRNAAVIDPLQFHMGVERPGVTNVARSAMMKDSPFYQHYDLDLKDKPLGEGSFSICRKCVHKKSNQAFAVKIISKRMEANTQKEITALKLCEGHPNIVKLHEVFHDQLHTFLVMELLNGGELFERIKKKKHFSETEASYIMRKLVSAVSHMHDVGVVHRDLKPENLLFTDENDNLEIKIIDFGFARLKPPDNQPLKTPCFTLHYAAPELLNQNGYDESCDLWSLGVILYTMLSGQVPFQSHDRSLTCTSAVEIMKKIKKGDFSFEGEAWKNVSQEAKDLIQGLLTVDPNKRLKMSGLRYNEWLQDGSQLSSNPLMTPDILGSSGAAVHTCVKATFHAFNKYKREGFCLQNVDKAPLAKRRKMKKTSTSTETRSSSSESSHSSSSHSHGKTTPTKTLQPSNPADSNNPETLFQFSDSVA

[10] = biological target: cAMP-dependent protein kinase catalytic subunit alpha (Homo sapiens) (UniProt P17612); test: PKA (h) Upstate kinase activity assay; details: Compound concentration 10.0 uM
[11] = biological target: Protein kinase C delta type (Homo sapiens) (UniProt Q05655); test: PKCdelta (h) Upstate kinase activity assay; details: Compound concentration 10.0 uM
[12] = biological target: T1, Serine/threonine-protein kinase D1 (Homo sapiens) (UniProt Q15139); test: PKCmu (h) Upstate kinase activity assay; details: Compound concentration 10.0 uM
T1 sequence (whole entry): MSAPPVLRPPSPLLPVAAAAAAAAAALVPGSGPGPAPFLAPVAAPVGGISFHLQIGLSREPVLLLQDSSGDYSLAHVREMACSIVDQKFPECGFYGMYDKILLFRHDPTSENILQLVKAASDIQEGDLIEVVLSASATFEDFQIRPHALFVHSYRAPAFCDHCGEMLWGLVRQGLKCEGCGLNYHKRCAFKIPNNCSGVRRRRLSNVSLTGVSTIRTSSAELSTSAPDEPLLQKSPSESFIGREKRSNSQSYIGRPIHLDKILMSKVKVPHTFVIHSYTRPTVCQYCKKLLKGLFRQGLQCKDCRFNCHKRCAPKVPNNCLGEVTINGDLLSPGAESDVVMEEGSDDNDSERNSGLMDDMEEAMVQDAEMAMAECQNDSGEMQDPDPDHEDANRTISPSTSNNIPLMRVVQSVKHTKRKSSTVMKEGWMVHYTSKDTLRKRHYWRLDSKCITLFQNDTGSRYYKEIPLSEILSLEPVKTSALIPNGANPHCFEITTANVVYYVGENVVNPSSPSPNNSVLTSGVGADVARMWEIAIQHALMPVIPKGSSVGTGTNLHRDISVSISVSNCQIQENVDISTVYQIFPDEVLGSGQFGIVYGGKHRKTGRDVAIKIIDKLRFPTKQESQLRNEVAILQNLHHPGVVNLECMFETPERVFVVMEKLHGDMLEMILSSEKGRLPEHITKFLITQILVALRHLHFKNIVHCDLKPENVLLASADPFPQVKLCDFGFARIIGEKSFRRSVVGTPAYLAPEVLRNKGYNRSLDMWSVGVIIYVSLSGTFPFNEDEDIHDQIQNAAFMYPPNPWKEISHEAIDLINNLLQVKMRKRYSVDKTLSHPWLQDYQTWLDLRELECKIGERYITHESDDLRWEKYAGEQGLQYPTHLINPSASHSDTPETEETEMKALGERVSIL

[13] = biological target: Protein kinase C theta type (Homo sapiens) (UniProt Q04759); test: PKCtheta (h) Upstate kinase activity assay; details: Compound concentration 10.0 uM
Sequence of Protein kinase C theta type (Homo sapiens) (Q04759 whole entry, looked up): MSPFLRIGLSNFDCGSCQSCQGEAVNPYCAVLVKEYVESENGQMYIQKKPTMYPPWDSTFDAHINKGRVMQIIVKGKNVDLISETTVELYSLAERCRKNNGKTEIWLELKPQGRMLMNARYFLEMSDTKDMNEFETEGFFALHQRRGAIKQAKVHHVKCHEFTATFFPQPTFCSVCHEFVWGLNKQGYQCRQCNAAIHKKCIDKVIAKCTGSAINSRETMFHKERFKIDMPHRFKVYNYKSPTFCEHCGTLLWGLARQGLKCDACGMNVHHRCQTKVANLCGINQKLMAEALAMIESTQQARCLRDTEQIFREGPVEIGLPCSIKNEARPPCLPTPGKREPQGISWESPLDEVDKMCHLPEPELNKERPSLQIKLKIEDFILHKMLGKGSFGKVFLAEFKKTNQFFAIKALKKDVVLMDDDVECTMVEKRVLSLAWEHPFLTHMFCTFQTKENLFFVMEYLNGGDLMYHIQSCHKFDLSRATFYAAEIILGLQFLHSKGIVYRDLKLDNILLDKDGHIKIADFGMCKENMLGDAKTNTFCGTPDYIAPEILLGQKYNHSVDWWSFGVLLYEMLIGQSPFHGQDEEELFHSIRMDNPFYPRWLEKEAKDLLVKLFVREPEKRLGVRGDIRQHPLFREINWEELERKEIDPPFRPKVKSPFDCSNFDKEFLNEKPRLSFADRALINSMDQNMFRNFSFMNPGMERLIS

[14] = biological target: T2, MAP kinase-activated protein kinase 5 (Homo sapiens) (UniProt Q8IW41); test: PRAK (h) Upstate kinase activity assay; details: Compound concentration 10.0 uM
T2 sequence (whole entry): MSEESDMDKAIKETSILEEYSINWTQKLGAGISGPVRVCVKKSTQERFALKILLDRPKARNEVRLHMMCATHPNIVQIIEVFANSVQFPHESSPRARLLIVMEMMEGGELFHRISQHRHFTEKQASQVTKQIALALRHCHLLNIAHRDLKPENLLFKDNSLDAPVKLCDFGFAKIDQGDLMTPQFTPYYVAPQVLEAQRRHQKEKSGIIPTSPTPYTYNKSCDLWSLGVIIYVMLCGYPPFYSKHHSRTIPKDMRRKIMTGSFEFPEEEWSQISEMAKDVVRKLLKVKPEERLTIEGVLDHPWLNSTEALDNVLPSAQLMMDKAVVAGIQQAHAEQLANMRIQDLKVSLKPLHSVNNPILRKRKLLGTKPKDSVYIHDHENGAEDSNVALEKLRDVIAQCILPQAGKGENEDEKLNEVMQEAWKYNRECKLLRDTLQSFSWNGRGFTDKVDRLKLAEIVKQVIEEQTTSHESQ

[15] = biological target: Proto-oncogene tyrosine-protein kinase receptor Ret (Homo sapiens) (UniProt P07949); test: Ret (h) Upstate kinase activity assay; details: Compound concentration 10.0 uM
[16] = biological target: Rho-associated protein kinase 2 (Rattus norvegicus, UniProt Q62868); test: ROCK-2 (r) Upstate kinase activity assay
[17] = biological target: Mitogen-activated protein kinase 11 (Homo sapiens) (UniProt Q15759); test: SAPK2b (h) Upstate kinase activity assay; details: Compound concentration 10.0 uM
Sequence of Mitogen-activated protein kinase 11 (Homo sapiens) (Q15759 whole entry): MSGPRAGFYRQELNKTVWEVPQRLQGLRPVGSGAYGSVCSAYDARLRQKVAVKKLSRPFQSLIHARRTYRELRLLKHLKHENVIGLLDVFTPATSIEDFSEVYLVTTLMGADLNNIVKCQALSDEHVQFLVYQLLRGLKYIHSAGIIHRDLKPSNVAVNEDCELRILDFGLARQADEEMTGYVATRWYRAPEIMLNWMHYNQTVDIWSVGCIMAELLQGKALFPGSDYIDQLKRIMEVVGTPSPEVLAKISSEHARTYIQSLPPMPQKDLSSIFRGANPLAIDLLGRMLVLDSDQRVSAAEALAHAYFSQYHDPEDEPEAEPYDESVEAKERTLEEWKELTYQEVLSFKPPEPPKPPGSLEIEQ

HepG2 = test: Liver HepG2 cell line MDS Pharma Services Proliferation Assay; type: functional, cell-based, Homo sapiens
MIA PaCa-2 = test: Pancreas MIA PaCa-2 cell line MDS Pharma Services Proliferation Assay; type: functional, cell-based, Homo sapiens
A-431 = test: Skin A431 cell line MDS Pharma Services Proliferation Assay; type: functional, cell-based, Homo sapiens
[18] = test system: Epidermal growth factor receptor (Homo sapiens), P00533 [UNDEFINED MUTATION]; details: Compound concentration 100.0 nM
[19] = test system: Epidermal growth factor receptor (Homo sapiens), P00533 [L858R,T790M]; details: Compound concentration 100.0 nM
[20] = biological target: Muscarinic acetylcholine receptor M4 (Homo sapiens) (UniProt P08173); details: Compound concentration 10.0 uM
Sequence of Muscarinic acetylcholine receptor M4 (Homo sapiens) (P08173 whole entry): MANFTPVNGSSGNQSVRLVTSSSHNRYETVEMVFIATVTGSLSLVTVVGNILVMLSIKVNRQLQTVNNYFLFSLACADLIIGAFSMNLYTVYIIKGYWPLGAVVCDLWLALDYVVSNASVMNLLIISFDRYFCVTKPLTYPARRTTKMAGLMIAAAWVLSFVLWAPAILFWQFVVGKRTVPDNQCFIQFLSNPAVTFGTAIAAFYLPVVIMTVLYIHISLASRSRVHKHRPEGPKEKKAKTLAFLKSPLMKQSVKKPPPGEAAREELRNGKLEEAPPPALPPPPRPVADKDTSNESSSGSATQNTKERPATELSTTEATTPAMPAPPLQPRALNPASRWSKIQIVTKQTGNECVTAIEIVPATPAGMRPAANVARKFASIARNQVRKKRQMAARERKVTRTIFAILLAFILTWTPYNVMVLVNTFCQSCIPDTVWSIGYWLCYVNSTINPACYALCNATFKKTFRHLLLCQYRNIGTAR

Sequence of Tyrosine-protein kinase BTK (Homo sapiens) (Q06187 whole entry): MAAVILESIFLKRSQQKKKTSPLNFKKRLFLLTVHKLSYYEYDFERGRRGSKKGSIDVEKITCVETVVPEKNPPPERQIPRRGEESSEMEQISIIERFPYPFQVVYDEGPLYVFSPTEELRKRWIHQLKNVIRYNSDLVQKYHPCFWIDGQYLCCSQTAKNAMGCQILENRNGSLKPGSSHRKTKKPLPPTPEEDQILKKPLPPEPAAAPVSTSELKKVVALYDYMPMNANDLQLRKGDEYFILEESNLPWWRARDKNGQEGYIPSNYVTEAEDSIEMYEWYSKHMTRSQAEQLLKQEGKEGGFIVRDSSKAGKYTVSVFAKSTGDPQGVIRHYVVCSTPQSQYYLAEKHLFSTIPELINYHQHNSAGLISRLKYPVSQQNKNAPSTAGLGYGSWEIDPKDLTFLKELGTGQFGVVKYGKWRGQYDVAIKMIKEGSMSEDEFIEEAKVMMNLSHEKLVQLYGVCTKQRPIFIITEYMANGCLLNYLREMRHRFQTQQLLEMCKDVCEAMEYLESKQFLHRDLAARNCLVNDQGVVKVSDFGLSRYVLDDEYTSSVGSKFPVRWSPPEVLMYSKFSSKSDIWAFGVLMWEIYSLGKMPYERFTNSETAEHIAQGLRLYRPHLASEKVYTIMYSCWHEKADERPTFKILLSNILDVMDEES

In the case of `Cc1c[nH]c2nccc(Oc3c(F)cc(Nc4cc(Cl)nc(N)n4)cc3F)c12` [BAY-549], the inhibition [1] is reported as 14%, the inhibition [2] is reported as 1% and the inhibition [3] is reported as 7%. The inhibition [4] was 9%, the inhibition [5] was -4% and the inhibition [6] was 59%. For the same molecule, the inhibition [7] was 31%, the inhibition [8] was 9% and the inhibition [9] was 86%. For the same molecule, the inhibition [10] was 95%, the inhibition [11] was 16% and the inhibition [12] was 60%. The inhibition [13] was 42%, the inhibition [14] was 36% and the inhibition [15] was 52%. It also gave an IC50 [16] of under 0.001 µM, an inhibition [17] of 1% and an IC50 (HepG2; Homo sapiens, HepG2) of 3.1 µM. The TGI (HepG2; Homo sapiens, HepG2) was 54 µM, the CC50 (HepG2; Homo sapiens, HepG2, read-out: LC50 (the source's name)) was over 100 µM and the “Mean % growth (n = 2) for 1.0 µM probe concentration” value (HepG2; ± SEM 2 % growth) was 62%. The “Mean % growth (n = 2) for 0.01 µM probe concentration” value (HepG2; ± SEM 4 % growth) was 101%, the “Mean % growth (n = 2) for 10.0 µM probe concentration” value (HepG2; ± SEM 4 % growth) was 18% and the “Mean % growth (n = 2) for 0.1 µM probe concentration” value (HepG2; ± SEM 6 % growth) was 95%. The “Mean % growth (n = 2) for 100.0 µM probe concentration” value (HepG2; ± SEM 6 % growth) was -3%, the “Mean % growth (n = 2) for 10.0 µM probe concentration” value (MIA PaCa-2) was 45% and the IC50 (MIA PaCa-2; Homo sapiens, MIA PaCa-2) was 8.9 µM. For the same molecule, the TGI (MIA PaCa-2; Homo sapiens, MIA PaCa-2) was 48 µM, the CC50 (MIA PaCa-2; Homo sapiens, MIA PaCa-2, read-out: LC50 (the source's name)) was over 100 µM and the “Mean % growth (n = 2) for 0.1 µM probe concentration” value (MIA PaCa-2; ± SEM 1 % growth) was 98%. The “Mean % growth (n = 2) for 0.01 µM probe concentration” value (MIA PaCa-2; ± SEM 3 % growth) was 95%, the “Mean % growth (n = 2) for 1.0 µM probe concentration” value (MIA PaCa-2; ± SEM 3 % growth) was 88% and the “Mean % growth (n = 2) for 100.0 µM probe concentration” value (MIA PaCa-2; ± SEM 5 % growth) was -23%. For the same molecule, the IC50 (A-431; Homo sapiens, A-431) was 5.5 µM, the TGI (A-431; Homo sapiens, A-431) was 31 µM and the CC50 (A-431; Homo sapiens, A-431, read-out: LC50 (the source's name)) was over 100 µM. The “Mean % growth (n = 2) for 1.0 µM probe concentration” value (A-431; ± SEM 3 % growth) was 77%, the “Mean % growth (n = 2) for 10.0 µM probe concentration” value (A-431; ± SEM 3 % growth) was 35% and the “Mean % growth (n = 2) for 100.0 µM probe concentration” value (A-431; ± SEM 5 % growth) was -36%. For the same molecule, the “Mean % growth (n = 2) for 0.1 µM probe concentration” value (A-431; ± SEM 6 % growth) was 103% and the “Mean % growth (n = 2) for 0.01 µM probe concentration” value (A-431; ± SEM 9 % growth) was 92%.

`Cn1cc(Cl)c2c(Oc3c(F)cc(Nc4cc(Cl)nc(N)n4)cc3F)ccnc21` [BAY-4900] showed a residual activity [18] of 88%, a residual activity [19] of 84% and an inhibition [20] of -3.76%.
